Laboratory results from patent US8779144B2, “Bicycloheteroaryl compounds as P2X7 modulators and uses thereof” (Evotec (US) Inc., priority 2006, dated 2014).

Key:
[1] = Half-life in human liver microsomes (HLM); assay type: in vitro ADME; conditions: 1 μM compound, 0.78 mg/mL HLM, NADPH, pH 7.4, 37° C.
Description: Test compounds (1 μM) are incubated with 3.3 mM MgCl2 and 0.78 mg/mL HLM (HL101) in 100 mM potassium phosphate buffer (pH 7.4) at 37° C. on the 96-deep well plate. The reaction mixture is split into two groups, a non-P450 and a P450 group. NADPH is only added to the reaction mixture of the P450 group. An aliquot of samples of P450 group is collected at 0, 10, 30, and 60 min time point, where 0 min time point indicated the time when NADPH is added into the reaction mixture of P450 group. An aliquot of samples of non-P450 group is collected at −10 and 65 min time point. Collected aliquots are extracted with acetonitrile solution containing an internal standard. The precipitated protein is spun down in centrifuge (2000 rpm, 15 min). The compound concentration in supernatant is measured by LC/MS/MS system.
The half-life value is obtained by plotting the natural logarithm of the peak area ratio of compounds/internal standard versus time. The slope of the line of best fit through the points yields the rate of metabolism (k). This is converted to a half-life value using following equations: Half-life=ln 2/k

[2] = test system: IL-1β release from THP-1 cells; experiment: IL-1β release assay in differentiated THP-1 cells stimulated with BzATP (ELISA); assay type: cell-based; conditions: Homo sapiens; for inhibition at 0.3 µM: 0.3 uM compound, BzATP 250 uM, read-out: IL-1β % Inhib. @ 0.3 uM.; for IC50: released IL-1β as in Example 9, four parameter logistic fit, read-out: IL-Iβ IC50
Description: THP-1 cells (ATCC Cat #285-IF-100) are plated in 96 well plates at a concentration of 200,000 cells per well and allowed to differentiate in RPMI-1640 media (ATCC Cat #30-2001) containing 10% FBS, 100 IU/mL penicillin, 100 ug/mL streptomycin, 100 ng/mL LPS and 100 ng/mL IFN-γ for 16 hours. Following differentiation, the cells are treated for an additional 2 hours in RPMI-1640 media containing 100 IU/mL penicillin, 100 ug/mL streptomycin and fresh LPS at 100 ng/mL. The cells are then pretreated for 30 minutes with the compound of interest at the appropriate concentration in RPMI media containing 100 IU/mL penicillin, 100 ug/mL streptomycin. Following the pretreatment 2′,3′-O-(4-benzoylbenzoyl)-adenosine 5′-triphosphate (Sigma Aldrich Cat # B6396) is added to a final concentration of 250 uM and the cells are incubated for an additional 45 minutes. 30 uL of cell supernatant is then collected and IL-113 levels determined via ELISA (R&D systems Cat. # HSLB50) according to manufacturer's recommendations using the Tecan Safire plate reader. Background adjusted IL-1β levels of drug treated and non-treated cells are used to calculate the percent inhibition. […]
The compounds set forth in Table 1 were tested for activity in a cellular model as described herein. Specifically, cells were pretreated with differing amounts of the compound under test and released IL-1β determined as in Example 9, above. Measurements were made and IC50 values, presented in Table 2, below, were determined by fitting the data to a four parameter logistic equation using GraphPad Prism software (GraphPad Software, Inc). The equation may be expressed by the following formula: Y=Bottom+(Top−Bottom)/(1+10^((LogEC50−X)*HillSlope)) Where X is the logarithm of concentration, Y is the response and Y starts at Bottom and goes to Top with a sigmoid shape.

Row | SMILES | half-life at 1 μM [1] [min] | inhibition at 0.3 µM [2] [%] | IC50 [2] [nM]
1 | O=C(NCC1CCCCCC1)c1cccc2c(=O)n(CCO)ccc12 [Compound 2041, 2-(2-Hydroxy-ethyl)-1-oxo-1,2-dihydro-isoquinoline-5-carboxylic acid cycloheptylmethyl-amide] | 18 | > 76 | 54
2 | O=C(NCC12CC3CC(CC(C3)C1)C2)c1cccc2c(=O)[nH]ccc12 [Compound 2028, 1-Oxo-1,2-dihydro-isoquinoline-5-carboxylic acid (adamantan-1-ylmethyl)-amide] | 18.6 | > 76 | 0.73
3 | O=C(NCC1(O)CCCCCC1)c1cccc2c(=O)n(Cc3ccc4c(c3)OCCO4)ccc12 [Compound 2033, 2-(2,3-Dihydro-benzo[1,4]dioxin-6-ylmethyl)-1-oxo-1,2-dihydro-isoquinoline-5-carboxylic acid (1-hydroxy-cycloheptylmethyl)-amide] | 13.8 | > 76 | 1.37
4 | C[C@H](C(N)=O)n1ccc2c(C(=O)NCC3CCCCCC3)cccc2c1=O [Compound 2062] | 36 | > 76 | 7.46
5 | Cn1ccc2c(C(=O)NCC3(O)CCCCCC3)cccc2c1=O [Compound 2032] | 22.8 | > 76 | 48.6
6 | C[C@@H](C(N)=O)n1ccc2c(C(=O)NCC3CCCCCC3)cccc2c1=O [Compound 2063] | 66 | > 76 | 17.3
7 | CC(C)C(CO)n1ccc2c(C(=O)NCC3(O)CCCCCC3)cccc2c1=O (stereo not shown) [Compound 2035, 2-(1-Hydroxymethyl-2-methyl-propyl)-1-oxo-1,2-dihydro-isoquinoline-5-carboxylic acid (1-hydroxy-cycloheptylmethyl)-amide] | 38.4 | > 76 | 5.66
8 | CC1(C)CCCC(O)(CNC(=O)c2cccc3c(=O)n(C(CO)CO)ccc23)C1 (stereo not shown) [Compound 2043] | 38.4 | > 76 | 23
9 | O=C(NCC1(O)CCCCCC1)c1cccc2c(=O)n(CC3CCOCC3)ccc12 [Compound 2034] | 15.6 | 51 to 75 | 133
10 | O=C(NCC1(O)CCCCCC1)c1cccc2c(=O)n(CCO)ccc12 [Compound 2048, 2-(2-Hydroxy-ethyl)-1-oxo-1,2-dihydro-isoquinoline-5-carboxylic acid (1-hydroxy-cycloheptylmethyl)-amide] | 42.6 | 26 to 50 | 326
11 | O=C(NCC1(O)CCCCCC1)c1cccc2c(=O)n(C(CO)CO)ccc12 [Compound 2047] | 31.8 | 26 to 50 | 573
12 | O=C(NCC1CCCCCC1)c1cccc2c(=O)n(C(CO)CO)ccc12 [Compound 2040] | 51 | > 76 | 39.2
13 | C[C@@H](C(N)=O)n1ccc2c(C(=O)NCC34CC5CC(CC(C5)C3)C4)cccc2c1=O [Compound 2065, 2-((S)-1-Carbamoyl-ethyl)-1-oxo-1,2-dihydro-isoquinoline-5-carboxylic acid (adamantan-1-ylmethyl)-amide] |  | > 76 | 0.44
14 | O=C(NCc1cccc(C(F)(F)F)c1F)c1cccc2c(=O)n(C3CC3)ccc12 [Compound 2077] |  | 51 to 75 | 162
15 | C[C@H](C(N)=O)n1ccc2c(C(=O)NCC34CC5CC(CC(C5)C3)C4)cccc2c1=O [Compound 2064, 2-((R)-1-Carbamoyl-ethyl)-1-oxo-1,2-dihydro-isoquinoline-5-carboxylic acid (adamantan-1-ylmethyl)-amide] | 19.2 | > 76 | 0.15
16 | CC(=O)Nc1ccc(CN2CCc3c(ncnc3C(=O)NCC3CCCCC3)C2)cc1 [Compound 2015] |  | 0 to 25 | 
17 | O=C(NCC1CCCCC1)c1cccc2c(=O)n(C(CO)CO)ccc12 [Compound 2055] |  | 51 to 75 | 269
18 | O=C(NCC1(O)CCCCCC1)c1cccc2c(=O)[nH]ccc12 [Compound 2030] | 23.4 | 51 to 75 | 79
19 | O=C(NCC1CCCCC1)c1ncnc2c1CCN(Cc1ccc(Cl)cc1)C2 [Compound 2009] |  | 0 to 25 | 
20 | C[C@@H](C(N)=O)n1ccc2c(C(=O)NCC3(O)CCCCCC3)cccc2c1=O [Compound 2056] |  | 26 to 50 | 506
